From patent EP1240898A2, “Use of 2-deoxy ecdysterone for the preparation of a medicament for inducing labour or abortion” (Council of Scientific and Industrial Research, priority 2000, dated 2001)

What was measured:
guinea pig uterus = experiment: Oxytocic activity on isolated guinea pig uterus (height of contraction compared with standard oxytocin or PGF2α); type: cell-based; details: at the concentration of 200 µg/ml
[1] = radiolabelled, injected into human volunteers, within 5 hours; cited from earlier work

Compound: CC(C)(O)CC[C@@H](O)[C@](C)(O)[C@H]1CC[C@@]2(O)C3=CC(=O)[C@@H]4C[C@@H](O)CC[C@]4(C)[C@H]3CC[C@]12C [2-deoxy ecdysterone]
- potency compared with the standards (in words) (guinea pig uterus): more potent than the standard oxytocin and PGF2α

Compound: CCCCC[C@H](O)/C=C/[C@H]1[C@H](O)CC(=O)[C@@H]1C/C=C\CCCC(=O)O [PGE2]
- radioactivity excreted in the urine [1]: about 50%

Compound: CCCCC[C@H](O)/C=C/[C@@H]1[C@@H](C/C=C\CCCC(=O)O)[C@@H](O)C[C@H]1O [PGF2α]
- radioactivity excreted in the urine [1]: around 90%
